Legend:
[1] = target: T1, NHE3 (Homo sapiens, UniProt P48764); test: Cell-based assay of NHE-3 activity (persistent inhibition), human; settings: human Persistence, 60 min incubation then washout
T1 construct: expressed in transfected cells
T1 sequence (P48764 26-834): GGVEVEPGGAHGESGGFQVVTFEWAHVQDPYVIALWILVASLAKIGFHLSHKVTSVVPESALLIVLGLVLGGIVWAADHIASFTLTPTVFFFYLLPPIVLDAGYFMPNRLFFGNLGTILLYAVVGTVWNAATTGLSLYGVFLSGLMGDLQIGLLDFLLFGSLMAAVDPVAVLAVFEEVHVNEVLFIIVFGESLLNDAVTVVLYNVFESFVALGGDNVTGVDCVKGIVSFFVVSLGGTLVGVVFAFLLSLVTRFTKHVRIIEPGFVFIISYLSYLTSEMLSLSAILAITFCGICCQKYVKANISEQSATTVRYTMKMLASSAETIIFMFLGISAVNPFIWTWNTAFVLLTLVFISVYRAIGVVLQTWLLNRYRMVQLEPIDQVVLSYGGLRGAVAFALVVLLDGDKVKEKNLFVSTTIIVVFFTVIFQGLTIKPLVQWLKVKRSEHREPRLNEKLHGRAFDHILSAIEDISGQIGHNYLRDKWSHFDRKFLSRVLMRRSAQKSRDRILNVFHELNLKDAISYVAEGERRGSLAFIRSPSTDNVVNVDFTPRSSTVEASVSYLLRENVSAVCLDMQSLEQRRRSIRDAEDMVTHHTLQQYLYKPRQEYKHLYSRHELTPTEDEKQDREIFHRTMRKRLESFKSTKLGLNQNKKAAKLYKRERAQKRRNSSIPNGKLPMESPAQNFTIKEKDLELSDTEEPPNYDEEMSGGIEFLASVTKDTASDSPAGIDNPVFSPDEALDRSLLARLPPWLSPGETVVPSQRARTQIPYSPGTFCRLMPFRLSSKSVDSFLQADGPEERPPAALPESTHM
T1 sequence (Q99653 2-195 partner limits assumed): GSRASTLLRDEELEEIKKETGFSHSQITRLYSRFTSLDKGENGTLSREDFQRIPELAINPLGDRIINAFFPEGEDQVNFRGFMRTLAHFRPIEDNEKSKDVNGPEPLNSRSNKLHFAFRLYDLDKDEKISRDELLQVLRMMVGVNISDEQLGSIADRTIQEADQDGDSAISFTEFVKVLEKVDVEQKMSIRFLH
Outline: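 Persistent inhibition: compound (0-30 μM, 60 min, RT, NaCl-HEPES pH 7.4) removed before assay. Human NHE3/NHERF2 PS120 cells were then BCECF-loaded during NH4Cl pulse (30 min, 37 °C), acidified in Na+-free buffer, and Na+ added 10 min after washout; antiport measured as initial fluorescence-ratio change per minute.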

[2] = tested on: human ileum monolayer culture; test: Sustained inhibition of apical acid secretion in human organoid monolayer cell cultures (ileum); format: cell-based; settings: Homo sapiens, 48 h; 1 μM apical, dosed day 6, apical media pH day 8, vs DMSO
Procedure: Basal media (BM) consisted of advanced DMEM/F12 containing 10 mM HEPES Invitrogen, 15630-080), 1:100 Glutamax (Invitrogen, 35050-061), and 1:100 penicillin/streptomycin (Invitrogen, 15140-122). Supplemented basal media (SBM) contained 1:100 N2 (Invitrogen, 17502-048), 1:50 B27 (Invitrogen, 12587-010), 1 mM N-acetylcysteine (Sigma, A9165), and 10 nM [Leu15]-gastrin I (Sigma, G9145). Growth factors used included 50 ng per mL mouse EGF (Peprotech, 315-09), 100 ng per mL mouse noggin (Peprotech, 250-38), 500 ng per mL human R-spondin 1 (R&D, 4645-RS), 100 ng per mL mouse Wnt-3a (R&D, 1324-WN), 20 μM. Y-27632 (Tocris, 1254), 10 mM nicotinamide (Sigma, N0636), 500 nM A83-01 (Tocris, 2939), 10 μM SB202190 (Tocris, 1264). Transwells were 0.4 μm pore polyester membrane 24-well Transwell inserts (Corning). Cultures were incubated at 37° C. in 5% CO2.
Human ileum organoids were cultured in WENRNAS (Wnt, EGF, noggin, R-spondin1, Nicotinamide, A83-01, SB202190) and typically grown for 7-12 days before being used to plate monolayer cultures. On day 0, organoid cultures embedded in Matrigel were treated with TrypLE Express to break organoids into small pieces and/or single cells. The cells were resuspended to 0.5×10^6 cells/mL in SBM containing WENRAY (Wnt, EGF, noggin, R-spondin1, A83-01, Y-27632). Following this step, 200 μL of cell suspension was plated into the apical side of a 24-well Transwell (100,000 cells/well) and 600 μL of SBM with WENRAY was added to the basolateral side. Ileum cells were differentiated with ENRA (EGF, noggin, R-spondin 1, A83-01) on day 3. The color of apical compartment turns from pink or orange to yellow due to the increase in NHE3 expression after differentiation.
Each human ileum monolayer culture well was washed twice with fresh SBM on the apical side on day 6 before compound dosing. All compound stocks were 10 mM dissolved in DMSO. Each compound stock was individually mixed with fresh SBM to reach final compound concentration 1 μM and dosed only on the apical side of the monolayer (total volume 200 μl). DMSO at the equivalent concentration was used as the vehicle control. Duplicate wells were dosed for each compound. On day 8, apical media pH was measured by pH electrode, to determine the ability of example compounds to produce sustained inhibition of NHE3 activity in a human monolayer culture system by preventing proton secretion into the apical compartment.

SMILES	% inhibition [1]	pIC50 [1]	IC50 [1] [nM]	inhibition at 1 µM [2] [%]
N#Cc1cc(Cl)cc2c1C[C@H](N1CCNCC1)[C@H]2Oc1ccc(S(=O)(=O)NCCOCCOCCNC(=O)NCCCCNC(=O)NCCOCCOCCNS(=O)(=O)c2ccc(O[C@H]3c4cc(Cl)cc(C#N)c4C[C@@H]3N3CCNCC3)c(F)c2)cc1F [Example 43, 3-[2-(2-[2-[(4-[[(1S,2S)-6-Chloro-4-cyano-2-(piperazin-1-yl)-2,3-dihydro-1H-inden-1-yl]oxy]-3-fluorobenzene)sulfonamido]ethoxy]ethoxy)ethyl]-1-[4-([[2-(2-[2-[(4-[[(1S,2S)-6-chloro-4-cyano-2-(piperazin-1-yl)-2,3-dihydro-1H-inden-1-yl]oxy]-3-fluorobenzene)sulfonamido]ethoxy]ethoxy)ethyl]carbamoyl]amino)butyl]urea; bis(trifluoroacetic acid)]	C (>70%)	C (NHE3 pIC50 > 7)		50 to 70
Cc1cc(S(=O)(=O)N[C@H]2CCN(CCOCCNC(=O)NCCCCNC(=O)NCCOCCN3CC[C@H](NS(=O)(=O)c4ccc(O[C@H]5c6cc(Cl)cc(Cl)c6C[C@@H]5N(C)C)c(C)c4)C3)C2)ccc1O[C@H]1c2cc(Cl)cc(Cl)c2C[C@@H]1N(C)C [Example 52, 3-(2-[2-[(3S)-3-[(4-[[(1S,2S)-4,6-Dichloro-2-(dimethylamino)-2,3-dihydro-1H-inden-1-yl]oxy]-3-methylbenzene)sulfonamido]pyrrolidin-1-yl]ethoxy]ethyl)-1-(4-[[(2-[2-[(3S)-3-[(4-[[(1S,2S)-4,6-dichloro-2-(dimethylamino)-2,3-dihydro-1H-inden-1-yl]oxy]-3-methylbenzene)sulfonamido]pyrrolidin-1-yl]ethoxy]ethyl)carbamoyl]amino]butyl)urea]	C (>70%)	C (NHE3 pIC50 > 7)		> 70
Cc1cc(S(=O)(=O)N[C@@H]2CCN(CCOCCNC(=O)NCCCCNC(=O)NCCOCCN3CC[C@@H](NS(=O)(=O)c4ccc(O[C@H]5c6cc(Cl)cc(C#N)c6C[C@@H]5N(C)C)c(C)c4)C3)C2)ccc1O[C@H]1c2cc(Cl)cc(C#N)c2C[C@@H]1N(C)C [Example 55, 3-(2-[2-[(3R)-3-[(4-[[(1S,2S)-6-Chloro-4-cyano-2-(dimethylamino)-2,3-dihydro-1H-inden-1-yl]oxy]-3-methylbenzene)sulfonamido]pyrrolidin-1-yl]ethoxy]ethyl)-1-(4-[[(2-[2-[(3R)-3-[(4-[[(1S,2S)-6-chloro-4-cyano-2-(dimethylamino)-2,3-dihydro-1H-inden-1-yl]oxy]-3-methylbenzene)sulfonamido]pyrrolidin-1-yl]ethoxy]ethyl)carbamoyl]amino]butyl)urea]	C (>70%)			< 50
Cc1cc(S(=O)(=O)N[C@H]2CCN(CCOCCNC(=O)NCCCCNC(=O)NCCOCCN3CC[C@H](NS(=O)(=O)c4ccc(O[C@H]5c6cc(Cl)cc(Cl)c6C[C@@H]5N(C)C)c(C)c4)C3=O)C2=O)ccc1O[C@H]1c2cc(Cl)cc(Cl)c2C[C@@H]1N(C)C [Example 91, 1-(2-[2-[(3S)-3-[(4-[[(1S,2S)-4,6-Dichloro-2-(dimethylamino)-2,3-dihydro-1H-inden-1-yl]oxy]-3-methylbenzene)sulfonamido]-2-oxopyrrolidin-1-yl]ethoxy]ethyl)-3-(4-[[(2-[2-[(3S)-3-[(4-[[(1S,2S)-4,6-dichloro-2-(dimethylamino)-2,3-dihydro-1H-inden-1-yl]oxy]-3-methylbenzene)sulfonamido]-2-oxopyrrolidin-1-yl]ethoxy]ethyl)carbamoyl]amino]butyl)urea]	C (>70%)	C (NHE3 pIC50 > 7)		50 to 70
O=C(NCCCCNC(=O)NCCOCCN1CC[C@@H](NS(=O)(=O)c2ccc(O[C@H]3c4cc(Cl)cc(Cl)c4C[C@@H]3N3CCNCC3)c(F)c2)C1)NCCOCCN1CC[C@@H](NS(=O)(=O)c2ccc(O[C@H]3c4cc(Cl)cc(Cl)c4C[C@@H]3N3CCNCC3)c(F)c2)C1 [Example 105, 4-([(1S,2S)-4,6-Dichloro-2-(piperazin-1-yl)-2,3-dihydro-1H-inden-1-yl]oxy)-N—[(R)-1-(20-[(R)-3-([4-([(1S2S)-4,6-dichloro-2-(piperazin-1-yl)-2,3-dihydro-1H-inden-1-yl]oxy)-3-fluorophenyl]sulfonamido)pyrrolidin-1-yl]-7,14-dioxo-3,18-dioxa-6,8,13,15-tetraazaicosyl)pyrrolidin-3-yl]-3-fluorobenzenesulfonamide; tetra(trifluoroacetate)]	C (>70%)		< 100	> 70

The next lines start with results.

% inhibition [1]	pIC50 [1]	IC50 [1] [nM]	SMILES	inhibition at 1 µM [2] [%]
C (>70%)	C (NHE3 pIC50 > 7)		Cc1cc(S(=O)(=O)N2CC[C@@H](COCCOCCNC(=O)NCCCCNC(=O)NCCOCCOC[C@@H]3CCN(S(=O)(=O)c4ccc(O[C@H]5c6cc(Cl)cc(Cl)c6C[C@@H]5N(C)C)c(C)c4)C3)C2)ccc1O[C@H]1c2cc(Cl)cc(Cl)c2C[C@@H]1N(C)C [Example 45, 3-[2-(2-[[(3R)-1-[(4-[[(1S,2S)-4,6-Dichloro-2-(dimethylamino)-2,3-dihydro-1H-inden-1-yl]oxy]-3-methylbenzene)sulfonyl]pyrrolidin-3-yl]methoxy]ethoxy)ethyl]-1-[4-([[2-(2[[(3R)-1-[(4-[[(1S,2S)-4,6-dichloro-2-(dimethylamino)-2,3-dihydro-1H-inden-1-yl]oxy]-3-methylbenzene)sulfonyl]pyrrolidin-3-yl]methoxy]ethoxy)ethyl]carbamoyl]amino)butyl]urea; bis(trifluoroacetic acid)]	50 to 70
C (>70%)	C (NHE3 pIC50 > 7)		Cc1cc(S(=O)(=O)N2CC[C@@H](COc3ccnc(CNC(=O)NCCCCNC(=O)NCc4cc(OC[C@@H]5CCN(S(=O)(=O)c6ccc(O[C@H]7c8cc(Cl)cc(Cl)c8C[C@@H]7N(C)C)c(C)c6)C5)ccn4)c3)C2)ccc1O[C@H]1c2cc(Cl)cc(Cl)c2C[C@@H]1N(C)C [Example 49, 3-[(4-[[(3R)-1-[(4-[[(1S,2S)-4,6-Dichloro-2-(dimethylamino)-2,3-dihydro-1H-inden-1-yl]oxy]-3-methylbenzene)sulfonyl]pyrrolidin-3-yl]methoxy]pyridin-2-yl)methyl]-1-[4-([[(4-[[(3R)-1-[(4-[[(1S,2S)-4,6-dichloro-2-(dimethylamino)-2,3-dihydro-1H-inden-1-yl]oxy]-3-methylbenzene)sulfonyl]pyrrolidin-3-yl]methoxy]pyridin-2-yl)methyl]carbamoyl]amino)butyl]urea]	> 70
